One compound from patent US20240226226A1, “KAPPA-OPIOID RECEPTOR AGONIST IMPLANTS FOR TREATMENT OF PRURITUS” (Titan Pharmaceuticals, Inc., priority 2021, published 2024) can be followed below.

SMILES strings stand for the structures.

Data set [1] is described as follows: Blood plasma levels from Compound A implants in rats. In kind it is in vivo. To be noted: one implant per rat, 17.5 mg Compound A. The procedure: Ten coextruded implants were prepared having a core comprising 50% of Compound A (as a salt) and 50% ethylene vinyl acetate, and a shell comprising 3% Compound A and 97% ethylene vinyl acetate. The implants measured 26 mm length×1.5 mm diameter, weighed 48 mg, and contained 17.5 mg Compound A. After extrusion, the implants were washed, dried, packaged and sterilized by E-beam irradiation at 25 KGy.
The implants were implanted into rats (one implant per rat), and blood plasma levels were measured. After an initial peak from drug on the implant surface, the rat plasma levels were sustained within a range of about 1.4 to about 4 ng/ml for about 2,000 hours (about 83 days).

In data set [2] the test system is mice challenged with 5′-guanidinonaltrindole (5′GNTI). Description: Mouse itch model, 5′GNTI challenge, mouse prototype EVA implants. It counts as in vivo. The following applies: male C57BL/6 mice, 1 prototype implant (10 mg Compound A) per mouse. How it is done:
Compound A implants were formulated in ethylene-vinyl acetate (EVA) matrices for testing in male C57BL/6 mice. Because of the small size of the mouse, test implant prototypes (25 mm×1.5 mm) containing a limited quantity of the drug (10 mg) were used for this mouse model study. […] After extrusion, the implant prototypes were washed, dried, packaged and sterilized by E-beam irradiation at 25 KGy.
Following the implantation of one Compound A implant in each mouse, the treated mice with drug-containing implants (N=5) and untreated control mice with placebo implants or sham surgery (N=7) were challenged with 5′-guanidinonaltrindole (5′GNTI) at Days 1, 14 and 28 post-implantation. Scratch events were monitored.

The nature of data set [3]: Mouse plasma concentration from EVA mouse prototype implants versus subcutaneous acute injection. In kind it is in vivo. The following applies: male C57BL/6 mice, one prototype implant per mouse, compared with acute 0.3 mg/kg subcutaneous injection. How it is done:
Male C57BL/6 mice were sampled for pharmacokinetic analysis following subcutaneous acute injection with Compound A in saline (0.3 mg/kg drug was administered, using an injection volume of 10 mL/kg), or following implantation with one Compound A implant in each mouse. The implants used were as described in Example 2.

Data set [4] deals with mice challenged with the pruritogen 5′-GNTI. Description: Scratching events in mice after 5′-GNTI challenge over an 84-day period, Compound A-containing implants. In kind it is in vivo, mouse. The following applies: male C57BL/6 mice, one implant (26×2.6 mm, 60 mg Compound A), 5′GNTI 0.1 mg/kg s.c. on Days 28, 56 and 84, initial 30 minutes of observation. How it is done:
Male C57BL/6 mice (8-14 wks old, N=7-8) were each implanted with one Compound A-containing implant (26×2.6 mm, 50% loading, 60 mg Compound A/implant). Controls were untreated mice or mice implanted with placebo (EVA-only) implants (N=5-7). On Days 28, 56 and 84 post-implantation, the mice were transferred to behavioral rooms during the light cycle, at least 2 hours prior to challenge with the pruritogen 5′-GNTI to minimize stress effects on grooming and movement. 5′GNTI (0.1 mg/kg) was subcutaneously injected just caudal to the head/neck, and the mice were immediately placed in an observation chamber (25×25 cm) with plexiglas walls and light-colored melamine flooring and video recorded from above for up to 90 minutes after pruritogen challenge, and then removed and placed back into their home cages in the housing colony. The video recordings were subsequently analyzed for the quantity of scratching behavior, classified as either a forepaw scratching bout behind the ears, or hind paw scratching bout of the flank/back of the animal, over the initial 30 minutes of observation.
(D28C=control mice at day 28, D28A=mice with Compound A implants at day 28, D56C=control mice at day 56, D56A=mice with Compound A implants at day 56, D84C=control mice at day 84, D84A=mice with Compound A implants at day 84).

For `CCCC[C@@H](NC(=O)[C@@H](Cc1ccccc1)NC(=O)[C@H](N)Cc1ccccc1)C(=O)N[C@H](CCCCN(C)C)C(=O)NCc1ccncc1` [Compound A], the “time for which plasma levels were sustained” value in data set [1] was 2000 hours and about 2,000 hours. Further, the “scratching behavior at day 28 post-implantation” value in data set [2] (5′GNTI challenge) was “returning to control levels”. The “sustained itch suppression post-implantation” value in data set [2] (5′GNTI challenge at Days 1, 14 and 28) is recorded as “up to 14 days”. In data set [3], the “plasma concentrations of Compound A over the first 14 days post-implantation” value was “well above the levels estimated for therapeutic anti-pruritus activity”. Moreover, the “scratch events versus control mice” value in data set [4] is recorded as “reduced scratch events”.
